Measured values: publication PMC4055595, “Pharmacokinetic Compatibility of Ginsenosides and Schisandra Lignans in Shengmai-san: From the Perspective of P-Glycoprotein” (PLoS ONE, 2014)

Tests used:
[1] = molecular target: human MDR1-encoded P-gp (L-MDR1 cells) (Homo sapiens, UniProt P08183); experiment: Uptake (intracellular concentration) of digoxin and ginsenosides in L-MDR1 cells; type: in vitro ADME
Protocol: LLC-PK1 cells, a cell line lacking P-gp, and the derived cell line L-MDR1, which over-express human MDR1-encoded P-gp, were grown in minimum essential medium with supplements at 37°C, 5% CO2, and 95% humidity. LLC-PK1 and L-MDR1 cells were seeded at a density of 12×10^6 cells per 150-cm^2 flask and grown for 7 days in medium 199 supplemented with 2 mM glutamine, 10% fetal bovine serum, 10 mg/500 mL of streptomycin, and 10,000 IU/500 mL of penicillin. To ensure a constant expression level of transport protein, L-MDR1 cells were grown in the presence of 640 nM vincristine. Cells were grown as monolayer on polycarbonate membrane filters (Transwell; Costar Corporation, Cambridge, MA) as outlined previously. Transepithelial resistance was measured in each well using a Millicell ERS ohmmeter (Millipore, Bedford, MA); wells registering a resistance of 200 ohms or greater, after correcting for the resistance obtained in control blank wells, were used in the transport experiments.
LLC-PK1 and L-MDR1 cells were incubated with SLE (2.0 and 10.0 µg/mL) or verapamil (10 µM) for 1.0 h, and then were washed to discard SLE or verapamil before adding 100 µg/mL of GE. The accumulation of GE lasted for 2 h, and the intracellular concentrations of ginsenosides were measured by LC/MS. All experiments were conducted in triplicate.

[2] = Rat plasma pharmacokinetics after single-dose vehicle/SLE and digoxin or GE; type: in vivo, Sprague-Dawley rats; conditions: female, Sprague-Dawley, rat, in vivo, po
Protocol: This study was carried out in strict accordance with the recommendations in the Guide for the Care and Use of Laboratory Animals of the National Institutes of Health. The protocol was approved by the Committee on the Ethics of Animal Experiments of the China Pharmaceutical University. All surgery was performed under sodium pentobarbital anesthesia, and all efforts were made to minimize suffering. Female healthy Sprague-Dawley rats (200±20 g) were purchased from the Laboratory Animal Center of Peking University Health Science Center (Beijing, PR China) and kept in an environmentally controlled breeding room for at least 3 days before experimentation. The rats were fed with standard laboratory food and water and fasted overnight but with free access to water before the test. To evaluate the effect of single treatment of SLE on the pharmacokinetics of ginsenosides, 24 rats were divided into four groups (group I ∼ group IV) averagely. […] In group II (control group): the rats received a single dose of vehicle (0.5% CMC-Na), and digoxin (0.5 mg/kg) was also given to the rats by intragastric administration. […] In group IV (control group): the rats received a single dose of vehicle (0.5% CMC-Na), and GE (120 mg/kg) was also given to the rats by gavage. […] Plasma was obtained by centrifugation at 5000 g for 10 min and stored at −20°C before analysis. The plasma / cell samples were extracted using a liquid–liquid extraction technique. To each tube containing 100 µL plasma, 10 µL internal standard (digoxin, 1.0 µg/mL) and 1.0 mL of n-butanol were added. The mixture was then vortex-extracted for 2 min, and centrifuged for 10 min at 10,000 g. […] The plasma concentration-time curves of ginsenosides in rats were obtained by plotting the mean plasma concentrations versus time. Pharmacokinetic parameters were calculated using the WinNonlin 6.3 program (Pharsight Inc., Mountain View, CA). The elimination half-life (t 1/2) value was calculated as 0.693/β, where β is the elimination rate constant calculated from the terminal linear portion of the log plasma concentration-time curve. The total areas under the plasma concentration- time curve from time 0 to the last quantifiable time point (AUC0-t) and from time 0 to infinity (AUC0-∞) were calculated using the log trapezoidal rule. [drawing 3] The maximum plasma concentrations (C max) for ginsenosides were obtained by visual inspection of the plasma concentration-time curve, whereas the initial drug concentration (the extrapolated concentration at zero time) of the drug after intravenous injection was calculated by back-extrapolation of the plasma concentration-time curve to the y-axis.

[3] = Transport of digoxin and ginsenosides across Caco-2 cell monolayer (efflux ratio); type: in vitro ADME, human; conditions: human, Caco-2, pH 7.4
Protocol: Caco-2 cells were purchased from American Type Culture Collection (Manassas, VA), and were routinely cultured in Dulbecco's modified Eagle's medium supplemented with 10% fetal bovine serum, 1% nonessential amino acids, 1 mM sodium pyruvate, and 100 U/mL penicillin and streptomycin (Invitrogen, Carlsbad, CA). The cells were grown in an atmosphere of 5% CO2 at 37°C, and cell medium was changed every other day. Cells were seeded at a density of 4×10^4 cells per well in 24-well microporous polycarbonate insert filter plates (0.4-µm pore size) (Corning Costar plates; Corning Life Sciences, Lowell, MA) and grown for 15 days in Caco-2 growth medium. The medium was replaced every 3 to 4 days. Before running the assay, the culture medium was replaced by HBSS buffer supplemented with 10 mM Hepes and 20 mM glucose.
Caco-2 cells with a density of 1.2×10^5 cells/insert were seeded on a permeable polycarbonate insert (Millicell cell culture inserts, 0.4 µm pore size, 12 mm diameter; Millipore Corporation) in 24-well tissue culture plates and were used for the experiment 18 to 21 days after seeding. [^14C]Mannitol permeability and transepithelial electrical resistance measurements (Millicell-ERS epithelial volt-ohm meter; Millipore Corporation) were used to evaluate the integrity of Caco-2 cell monolayer. The monolayer used in transport studies had transepithelial electrical resistance values exceeding 600 Ω·cm^2, and the leakage of mannitol was less than 0.3% of the dose/h. Before transport initiation studies, the cell monolayer was first washed with warm HBSS (pH 7.4) twice. HBSS containing SLE (2.0 and 10.0 µg/mL) or 1% ethanol (control) was then loaded into both apical and basolateral chambers. After incubation at 37°C for 1.5 h, 100 µg/mL of GE was added to either the apical or basolateral side to evaluate the transport in absorptive and secretory directions, and the cell monolayer was incubated for another 2 h. 10 µM verapamil was used as a positive control inhibitor. At the designated time point, samples were taken from the receiving chamber for analysis. Ginsenosides were determined by LC-MS. All experiments were conducted in triplicate.
For the transport assay, the apparent permeability (P app, cm/s) in each direction (A→B and B→A) was calculated as follows, where A is the surface area of the membrane inserts (0.0804 cm^2), C 0 is the initial concentration of the compound applied in the donor compartment (2 µM), and △Q is the amount (micromoles) of compound transported over time △t (5 h = 18,000 s): [drawing 1]
The efflux ratio (ER) was a dimensionless number calculated as the ratio of the apparent permeability in the B→A direction divided by the apparent permeability in the A→B direction. [drawing 2]

Chain of human MDR1-encoded P-gp (L-MDR1 cells) (P08183 whole entry): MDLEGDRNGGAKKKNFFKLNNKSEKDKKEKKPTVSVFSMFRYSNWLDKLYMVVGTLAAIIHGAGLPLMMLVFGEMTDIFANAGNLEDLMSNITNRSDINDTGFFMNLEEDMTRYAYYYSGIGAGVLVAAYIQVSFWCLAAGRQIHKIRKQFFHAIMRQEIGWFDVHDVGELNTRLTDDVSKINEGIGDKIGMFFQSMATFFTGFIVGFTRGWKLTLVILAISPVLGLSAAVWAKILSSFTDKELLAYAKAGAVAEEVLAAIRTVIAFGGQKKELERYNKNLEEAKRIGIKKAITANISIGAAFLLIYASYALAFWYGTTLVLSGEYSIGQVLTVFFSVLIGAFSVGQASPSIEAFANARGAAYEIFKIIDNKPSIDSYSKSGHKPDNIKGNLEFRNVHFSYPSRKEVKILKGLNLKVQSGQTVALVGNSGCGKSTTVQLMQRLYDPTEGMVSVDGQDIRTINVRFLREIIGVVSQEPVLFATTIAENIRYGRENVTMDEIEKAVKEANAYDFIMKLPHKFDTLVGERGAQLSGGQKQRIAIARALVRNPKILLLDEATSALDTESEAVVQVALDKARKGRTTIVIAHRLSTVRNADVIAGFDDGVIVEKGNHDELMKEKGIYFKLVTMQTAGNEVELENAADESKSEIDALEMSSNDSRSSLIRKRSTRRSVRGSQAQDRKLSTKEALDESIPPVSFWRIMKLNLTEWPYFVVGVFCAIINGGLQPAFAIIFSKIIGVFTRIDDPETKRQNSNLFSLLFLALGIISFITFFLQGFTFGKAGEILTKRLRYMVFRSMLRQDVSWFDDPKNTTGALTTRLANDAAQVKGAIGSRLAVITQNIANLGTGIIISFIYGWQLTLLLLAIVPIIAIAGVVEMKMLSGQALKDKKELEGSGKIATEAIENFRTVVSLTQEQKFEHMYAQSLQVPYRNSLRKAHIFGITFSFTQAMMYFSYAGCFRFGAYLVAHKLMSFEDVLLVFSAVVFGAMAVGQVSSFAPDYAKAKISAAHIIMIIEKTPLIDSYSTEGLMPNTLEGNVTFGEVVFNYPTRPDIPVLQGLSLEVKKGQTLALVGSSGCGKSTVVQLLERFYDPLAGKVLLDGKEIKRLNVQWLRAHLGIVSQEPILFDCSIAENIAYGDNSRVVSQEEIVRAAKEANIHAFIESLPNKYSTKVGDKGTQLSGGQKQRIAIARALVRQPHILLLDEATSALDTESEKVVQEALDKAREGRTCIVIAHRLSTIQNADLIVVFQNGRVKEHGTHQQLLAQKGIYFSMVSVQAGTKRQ

## CC(C)=CCC[C@](C)(O[C@@H]1O[C@H](CO[C@@H]2O[C@@H](CO)[C@H](O)[C@H]2O)[C@@H](O)[C@H](O)[C@H]1O)[C@H]1CC[C@]2(C)[C@@H]1[C@H](O)C[C@@H]1[C@@]3(C)CC[C@H](O[C@@H]4O[C@H](CO)[C@@H](O)[C@H](O)[C@H]4O[C@@H]4O[C@H](CO)[C@@H](O)[C@H](O)[C@H]4O)C(C)(C)[C@@H]3CC[C@]12C [Rc, ginsenoside Rc]
[1]; 2.0 µg/mL SLE
  Increase of intracellular concentration by SLE: 1.9 fold
[1]; 10.0 µg/mL SLE
  Increase of intracellular concentration by SLE: 3.5 fold
[2]
  Tmax: 9.00 ± 2.00 h
  t1/2: 16.90 ± 2.14 h
[2]; Tmax
  Tmax: 9.5 ± 3 h
[2]; t1/2
  half-life: 17.3 ± 4.54 h
[3]
  efflux ratio at 2 h, 100 µg/mL: 4.36
